Drawing on patent US6610689B2, “HIV protease inhibitors based on amino acid derivatives” (priority 2001, dated 2003), this text covers Ki for 28 compounds.

pKi: −log10 of the molar value.

The first assay concerns the target T1, HIV protease (Human immunodeficiency virus type 1 group M subtype B, UniProt P04585).
T1 construct: A third viral enzyme known as protease then cleaves the polyproteins
The assay can be described thus: Enzymatic Assay for Determining the Inhibition Constant (Ki) of Synthetic Compounds Targeting the HIV Protease (fluorometric FRET assay).
Conditions: not given
The format is biochemical. An outline of the steps: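 Fluorometric FRET assay following protease cleavage of an EDANS/DABCYL-labelled substrate. Initial velocities without (Vo) and with inhibitor (Vi) measured; Ki derived from the Henderson equation using inhibitor and substrate concentrations and Km.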
`Cc1ccc(S(=O)(=O)N[C@@H](CC2CCCCC2)C(=O)NCCCC[C@@H](C(=O)O)N(CC(C)C)S(=O)(=O)c2ccc(C)cc2)cc1` [Example 33, Nα-Isobutyl-Nα-(4-methylbenzenesulfonyl)-Nε-[N′α-(4-methylbenzenesulfonyl)-L-cyclohexylalanyl]-L-lysine] showed a negative-log Ki (pKi) of 8.49. Still for that read-out and setting: with `Cc1ccc(S(=O)(=O)N[C@@H](Cc2cc3ccccc3s2)C(=O)NCCCC[C@@H](C(=O)O)N(CC(C)C)S(=O)(=O)c2ccc(C)cc2)cc1` [Example 42, Nα-Isobutyl-Nα-(4-methylbenzenesulfonyl)-Nε-[N′α-(4-methylbenzenesulfonyl)-L-3-(2-thianaphthyl)-alanyl]-L-lysine] the figure was 6.59; with `CC(=O)N[C@@H](Cc1ccccc1)C(=O)NCCCC[C@@H](CO)N(CC(C)C)S(=O)(=O)c1ccc(C)cc1` [Example 118, (2S,2′S) 2-N-Isobutyl-2-N-(4-methylbenzenesulfonyl)-6-N-(N′α-acetyl-S-phenylalanyl)-2,6-diaminohexanol], 7.89. Still for that read-out and setting: to `CC(C)CN([C@@H](CCCCNC(=O)[C@H](Cc1ccccc1)NS(=O)(=O)c1ccccc1)C(=O)O)S(=O)(=O)c1ccc(N)cc1` [Example 44, Nα-(4-Aminobenzenesulfonyl)-Nα-isobutyl-Nε-(N′α-benzenesulfonyl-L-phenylalanyl)-L-lysine] belongs 8.44; to `COC(=O)[C@H](CCCCNC(=S)[C@H](Cc1c[nH]c2ccccc12)NS(=O)(=O)c1ccc(C)cc1)N(CC(C)C)S(=O)(=O)c1ccc(C)cc1` [Example 75, Nα-Isobutyl-Nα-(4-methylbenzenesulfonyl)-Nε-[N′α-(4-methylbenzenesulfonyl)-L-thiotryptophanyl]-L-lysine Methyl Ester], less than 6.52.

Compound `Cc1ccc(S(=O)(=O)N(CC(C)C)[C@H](CO)CCCCNC(=O)[C@@H]2Cc3c([nH]c4ccccc34)CN2C(=O)OC(C)(C)C)cc1` [Example 141, (2S,2′S) 2-N-Isobutyl-2-N-(4-methylbenzenesulfonyl)-6-N-(N′α-tert-butoxycarbonyl-S-1,2,3,4-tetrahydronorharman-3-carbonyl)-2,6-diaminohexanol] showed a negative logarithm of the Ki (pKi) of 7.42.

Regarding `Cc1ccc(S(=O)(=O)N(CC(C)C)[C@@H](CCCCNC(=O)[C@H](Cc2ccc(OCc3ccccc3)cc2)NC(=O)OC(C)(C)C)C(=O)O)cc1` [Example 87, Nα-Isobutyl-Nα-(4-methylbenzenesulfonyl)-Nε-(N′α-tert-butoxycarbonyl-O-benzyl-L-tyrosyl)-L-lysine], the negative logarithm of the Ki (pKi) is 7.31.

`COC(=O)[C@H](CCCCNC(=O)[C@H](Cc1c[nH]c2ccccc12)NC(=O)OC(C)(C)C)N(CC1CCCC1)S(=O)(=O)c1ccc(OC)cc1` [Example 150, Nα-Cyclopentylmethyl-Nα-(4-methoxybenzenesulfonyl)-Nε-(N′α-tert-butoxycarbonyl-L-tryptophanyl)-L-lysine Methyl Ester]: the pKi is less than 6.52. On the same count and under the same terms, to `Cc1ccc(S(=O)(=O)N[C@@H](Cc2ccccc2)C(=O)NCCCC[C@@H](C(=O)O)N(CC(C)C)S(=O)(=O)c2cccs2)cc1` [Example 54, Nα-Isobutyl-Nα-(2-thiophenesulfonyl)-Nε-[N′α-(4-methylbenzenesulfonyl)-L-phenylalanyl]-L-lysine] belongs 7.77.

With `CC(C)CN([C@H](CO)CCCCNC(=O)[C@H](Cc1c[nH]c2ccccc12)NS(=O)(=O)c1ccc([N+](=O)[O-])cc1)S(=O)(=O)c1ccc(N)cc1` [Example 179, (2S,2′S) 2-N-(4-Aminobenzenesulfonyl)-2-N-isobutyl-6-N-[N′α-(4-nitrobenzenesulfonyl)-S-tryptophanyl]-2,6-diaminohexanol], the pKi is 7.49. Still for that read-out and setting: with `Cc1ccc(S(=O)(=O)N(CC(C)C)[C@@H](CCCCNC(=O)[C@H](CC(N)=O)NC(=O)c2ccccc2)C(=O)O)cc1` [Example 63, Nα-Isobutyl-Nα-(4-methylbenzenesulfonyl)-Nε-(N′α-benzoyl-L-asparagyl)-L-lysine] the figure was 6.71; with `COC(=O)[C@H](CCCCNC(=S)[C@H](Cc1ccccc1)NC(=S)c1ccccc1)N(CC(C)C)S(=O)(=O)c1ccc(C)cc1` [Example 76, Nα-Isobutyl-Nα-(4-methylbenzenesulfonyl)-Nε-(N′α-thiobenzoyl-L-thiophenylalanyl)-L-lysine Methyl Ester], less than 6.52. The same measure, in the same setting: with `Cc1ccc(S(=O)(=O)N(CC(C)C)[C@@H](CCCCNC(=O)[C@H](Cc2ccccc2)NS(=O)(=O)c2ccccc2)C(=O)O)cc1` [Example 8, Nα-Isobutyl-Nα-(4-methylbenzenesulfonyl)-Nε-(N′α-benzenesulfonyl-L-phenylalanyl)-L-lysine] the figure was 8.72; with `Cc1ccc(S(=O)(=O)N(CC(C)C)[C@H](CO)CCCCNC(=O)[C@H](Cc2c[nH]c3ccccc23)NC(=O)N2CCOCC2)cc1` [Example 171, (2S,2′S) 2-N-Isobutyl-2-N-(4-methylbenzenesulfonyl)-6-N-[N′α-(4-morpholinecarbonyl)-S-tryptophanyl]-2,6-diaminohexanol], 8.10.

Regarding `Cc1ccc(S(=O)(=O)N[C@@H](CC(N)=O)C(=O)NCCCC[C@@H](C(=O)O)N(CC(C)C)S(=O)(=O)c2ccc(N)cc2)cc1` [Example 47, Nα-(4-Aminobenzenesulfonyl)-Nα-isobutyl-Nε-[N′α-(4-methylbenzenesulfonyl)-L-asparagyl]-L-lysine], the pKi is 7.27. Still for that read-out and setting: to `Cc1ccc(S(=O)(=O)N(CC(C)C)[C@H](CO)CCCCNC(=O)[C@H](Cc2ccccc2)NS(=O)(=O)c2ccc(C(F)(F)F)cc2)cc1` [Example 127, (2S,2′S) 2-N-Isobutyl-2-N-(4-methylbenzenesulfonyl)-6-N-[N′α-(4-trifluoromethylbenzenesulfonyl)-S-phenylalanyl]-2,6-diaminohexanol] belongs 6.79.

Compound `Cc1ccc(S(=O)(=O)N(CC(C)C)[C@@H](CCCCNC(=O)[C@H](Cc2ccccc2)NS(=O)(=O)c2ccc(F)cc2)C(=O)O)cc1` [Example 18, Nα-Isobutyl-Nα-(4-methylbenzenesulfonyl)-Nε-[N′α-(4-fluorobenzenesulfonyl)-L-phenylalanyl]-L-lysine] showed a pKi of 8.08.

As for `Cc1ccc(S(=O)(=O)N[C@@H](Cc2ccccc2)C(=O)NCCCC[C@@H](C(=O)O)N(CC(C)C)S(=O)(=O)c2ccc(C)cc2)cc1` [Example 1, Nα-Isobutyl-Nα-(4-methylbenzenesulfonyl)-Nε-[N′α-(4-methylbenzenesulfonyl)-L-phenylalanyl]-L-lysine], the pKi was 8.96.

Consider `Cc1ccc(S(=O)(=O)N(CC(C)C)C(CCCCNC(=O)C(Cc2c[nH]c3ccccc23)NS(=O)(=O)c2ccccc2)C(=O)OCC(O)CO)cc1` [Example 104, Nα-Isobutyl-Nα-(4-methylbenzenesulfonyl)-Nε-(N′α-benzenesulfonyl-L-tryptophanyl)-L-lysine 2,3-Dihydroxypropyl Ester], for which the pKi is less than 6.52. The same measure, in the same setting: with `Cc1ccc(S(=O)(=O)N[C@@H](Cc2ccccc2)C(=O)NCCCC[C@@H](CO)N(CC(C)C)S(=O)(=O)c2ccc(C)cc2)cc1` [Example 96, (2S,2′S) 2-N-Isobutyl-2-N-(4-methylbenzenesulfonyl)-6-N-[N′α-(4-methylbenzenesulfonyl)-S-phenylalanyl]-2,6-diaminohexanol] the figure was 7.80; with `COC(=O)[C@H](CCCCNC(=O)[C@H](Cc1ccccc1)NS(=O)(=O)c1cccs1)N(CC(C)C)S(=O)(=O)c1ccc(C)cc1` [Example 57, Nα-Isobutyl-Nα-(4-methylbenzenesulfonyl)-Nε-[N′α-(2-thiophenesulfonyl)-L-phenylalanyl]-L-lysine Methyl Ester], less than 6.52. The same measure, in the same setting: with `COc1ccc(CN(CC(=O)NCCCC[C@@H](CO)N(CC(C)C)S(=O)(=O)c2ccc(C)cc2)c2ccccc2)cc1` [Example 175, (2S) 2-N-Isobutyl-2-N-(4-methylbenzenesulfonyl)-6-N-[N′α-(4-methoxybenzyl)-N′α-phenylglycyl]-2,6-diaminohexanol] the figure was 8.20. Regarding `CC(=O)Nc1ccc(S(=O)(=O)N[C@@H](Cc2ccccc2)C(=O)NCCCC[C@@H](C(=O)O)N(CC(C)C)S(=O)(=O)c2ccc(C)cc2)cc1` [Example 3, Nα-Isobutyl-Nα-(4-methylbenzenesulfonyl)-Nε-[N′α-(4-acetamidobenzenesulfonyl)-L-phenylalanyl]-L-lysine], the pKi is 9.01. On the same count and under the same terms, to `CCCC[C@H](NS(=O)(=O)c1ccccc1)C(=O)NCCCC[C@@H](C(=O)O)N(CC(C)C)S(=O)(=O)c1ccc(C)cc1` [Example 15, Nα-Isobutyl-Nα-(4-methylbenzenesulfonyl)-Nε-[N′α-(benzenesulfonyl)-L-norleucyl]-L-lysine] belongs 7.47; to `COc1ccc(CC(=O)N[C@@H](Cc2c[nH]c3ccccc23)C(=O)NCCCC[C@@H](CO)N(CC(C)C)S(=O)(=O)c2ccc(C)cc2)cc1` [Example 165, (2S,2′S) 2-N-Isobutyl-2-N-(4-methylbenzenesulfonyl)-6-N-[N′α-(4-methoxyphenylacetyl)-S-tryptophanyl]-2,6-diaminohexanol], 8.96.

Staying with this assay, now noted: Anti-protease activity of Ne-amino acid substituted L-lysine derivatives and analogs of formula I; read-out: Ki.
Turning to `Cc1ccc(S(=O)(=O)N(CC(C)C)[C@@H](CCCCNC(=O)[C@H](CO)NC(=O)OCC2c3ccccc3-c3ccccc32)C(=O)O)cc1` [Example 36, Nα-Isobutyl-Nα-(4-methylbenzenesulfonyl)-Nε-[N′α-(9-fluorenylmethoxycarbonyl)-L-seryl]-L-lysine], the pKi is 6.79.

The same assay, now with this note: Table 1, compounds of formula I; read-out: Ki (anti-protease activity).
`Cc1ccc(S(=O)(=O)N(CC(C)C)[C@@H](CCCCNC(=O)CN(Cc2ccccc2)c2ccccc2)C(=O)O)cc1` [Example 114, Nα-Isobutyl-Nα-(4-methylbenzenesulfonyl)-Nε-(N′α-benzyl-N′α-phenylglycyl)-L-lysine]: the pKi is 9.03. With `Cc1ccc(S(=O)(=O)N(CC(C)C)[C@@H](CCCCNC(=O)CNc2ccccn2)C(=O)O)cc1` [Example 108, Nα-Isobutyl-Nα-(4-methylbenzenesulfonyl)-Nε-[N′α-(2-pyridyl)glycyl]-L-lysine], the negative logarithm of the Ki (pKi) was less than 6.52.
